Measured values from US12077503B2, “Substituted cyclic amides and their use as herbicides” (FMC CORPORATION, priority 2015, dated 2024).

Legend:
Experiment in all cases: Test E preemergence
Assay type in all cases: in vivo
Conditions in all cases: scale 0 to 100
Kochia (Kochia scoparia) = test system: Kochia (Kochia scoparia)
In short: (§1)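 Visual ratings from 0 (no effect) to 100 (complete control) were made versus controls 14 to 21 d after treatment. Seeds in silt loam were treated preemergence, or plants 2 to 18 cm tall in peat-based medium postemergence, with the test chemical in a surfactant-containing, non-phytotoxic solvent mixture, then held in a greenhouse.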

[1] = test system: Panicum, fall (fall Panicum, Panicum dichotomiflorum)
In short: as §1

[2] = test system: arrowleaf Sida (Sida rhombifolia)
In short: as §1

[3] = test system: barnyardgrass (Echinochloa crus-galli)
In short: as §1

corn (Zea mays) = test system: corn (Zea mays)
In short: as §1

[4] = test system: crabgrass, Brazil (Brazilian crabgrass, Digitaria horizontalis)
In short: as §1

[5] = test system: crabgrass, large (large crabgrass, Digitaria sangumnalis)
In short: as §1

[6] = test system: dayflower, VA (Virginia dayflower, Commelina virginica)
In short: as §1

[7] = test system: field bindweed (Convolvulus arvensis)
In short: as §1

[8] = test system: foxtail, green (green foxtail, Setaria viridis)
In short: as §1

[9] = test system: goosegrass (Eleusine indica)
In short: as §1

[10] = test system: horseweed (Conyza canadensis)
In short: as §1

[11] = test system: lambsquarters (Chenopodium album)
In short: as §1

[12] = test system: pigweed, palmer (palmer pigweed, Amaranthus palmeri)
In short: as §1

[13] = test system: ragweed (common ragweed, Ambrosia elatior)
In short: as §1

[14] = test system: ryegrass, Italian (Italian ryegrass, Lolium multiflorum)
In short: as §1

[15] = test system: sandbur (southern sandbur, Cenchrus echinatus)
In short: as §1

soybean (Glycine max) = test system: soybean (Glycine max)
In short: as §1

[16] = test system: surinam grass (Brachiaria decumbens)
In short: as §1

[17] = test system: velvetleaf (Abutilon theophrasti)
In short: as §1

[18] = test system: waterhemp (common waterhemp, Amaranthus rudis)
In short: as §1

**Q.** For `CN1CC(c2ccc(C(F)(F)F)cc2)C(C(=O)Nc2ccccc2S(C)(=O)=O)C1=O` (stereo not shown) [Compound 624], which “Plant response rating: Kochia” value (Kochia (Kochia scoparia); 31 g ai/ha) is on record?
**A.** 0

**Q.** And the “Plant response rating: Kochia” value (Kochia (Kochia scoparia); 125 g ai/ha)?
**A.** 0

**Q.** What about the “Plant response rating: Kochia” value (Kochia (Kochia scoparia); 250 g ai/ha) of the same molecule?
**A.** 30

**Q.** What about the “Plant response rating: Panicum, Fall” value ([1]; 31 g ai/ha) of the same molecule?
**A.** 0

**Q.** What about the “Plant response rating: Panicum, Fall” value ([1]; 62 g ai/ha) of the same molecule?
**A.** 0

**Q.** What about the “Plant response rating: Panicum, Fall” value ([1]; 125 g ai/ha) of the same molecule?
**A.** 30

**Q.** And the “Plant response rating: Panicum, Fall” value ([1]; 250 g ai/ha)?
**A.** 60

**Q.** And the “Plant response rating: Arrowleaf Sida” value ([2]; 31 g ai/ha)?
**A.** 50

**Q.** What about the “Plant response rating: Arrowleaf Sida” value ([2]; 62 g ai/ha) of the same molecule?
**A.** 50

**Q.** And the “Plant response rating: Arrowleaf Sida” value ([2]; 125 g ai/ha)?
**A.** 40

**Q.** And the “Plant response rating: Arrowleaf Sida” value ([2]; 250 g ai/ha)?
**A.** 60

**Q.** And the “Plant response rating: Barnyardgrass” value ([3]; 31 g ai/ha)?
**A.** 0

**Q.** And the “Plant response rating: Barnyardgrass” value ([3]; 62 g ai/ha)?
**A.** 30

**Q.** What about the “Plant response rating: Barnyardgrass” value ([3]; 125 g ai/ha) of the same molecule?
**A.** 50

**Q.** And the “Plant response rating: Barnyardgrass” value ([3]; 250 g ai/ha)?
**A.** 65

**Q.** What about the “Plant response rating: Corn” value (corn (Zea mays); 31 g ai/ha) of the same molecule?
**A.** 0

**Q.** What about the “Plant response rating: Corn” value (corn (Zea mays); 62 g ai/ha) of the same molecule?
**A.** 0

**Q.** What about the “Plant response rating: Corn” value (corn (Zea mays); 125 g ai/ha) of the same molecule?
**A.** 10

**Q.** What about the “Plant response rating: Corn” value (corn (Zea mays); 250 g ai/ha) of the same molecule?
**A.** 20

**Q.** What about the “Plant response rating: Crabgrass, Brazil” value ([4]; 31 g ai/ha) of the same molecule?
**A.** 80

**Q.** What about the “Plant response rating: Crabgrass, Brazil” value ([4]; 62 g ai/ha) of the same molecule?
**A.** 80

**Q.** And the “Plant response rating: Crabgrass, Brazil” value ([4]; 125 g ai/ha)?
**A.** 95

**Q.** And the “Plant response rating: Crabgrass, Brazil” value ([4]; 250 g ai/ha)?
**A.** 100

**Q.** What about the “Plant response rating: Crabgrass, Large” value ([5]; 31 g ai/ha) of the same molecule?
**A.** 30

**Q.** What about the “Plant response rating: Crabgrass, Large” value ([5]; 62 g ai/ha) of the same molecule?
**A.** 85

**Q.** What about the “Plant response rating: Crabgrass, Large” value ([5]; 125 g ai/ha) of the same molecule?
**A.** 80

**Q.** And the “Plant response rating: Crabgrass, Large” value ([5]; 250 g ai/ha)?
**A.** 90

**Q.** What about the “Plant response rating: Dayflower, VA” value ([6]; 31 g ai/ha) of the same molecule?
**A.** 0

**Q.** What about the “Plant response rating: Dayflower, VA” value ([6]; 62 g ai/ha) of the same molecule?
**A.** 0

**Q.** What about the “Plant response rating: Dayflower, VA” value ([6]; 125 g ai/ha) of the same molecule?
**A.** 30

**Q.** And the “Plant response rating: Dayflower, VA” value ([6]; 250 g ai/ha)?
**A.** 50

**Q.** What about the “Plant response rating: Field Bindweed” value ([7]; 31 g ai/ha) of the same molecule?
**A.** 0

**Q.** And the “Plant response rating: Field Bindweed” value ([7]; 62 g ai/ha)?
**A.** 10

**Q.** And the “Plant response rating: Field Bindweed” value ([7]; 125 g ai/ha)?
**A.** 5

**Q.** What about the “Plant response rating: Field Bindweed” value ([7]; 250 g ai/ha) of the same molecule?
**A.** 10

**Q.** And the “Plant response rating: Foxtail, Green” value ([8]; 31 g ai/ha)?
**A.** 20

**Q.** And the “Plant response rating: Foxtail, Green” value ([8]; 62 g ai/ha)?
**A.** 20

**Q.** What about the “Plant response rating: Foxtail, Green” value ([8]; 125 g ai/ha) of the same molecule?
**A.** 65

**Q.** And the “Plant response rating: Foxtail, Green” value ([8]; 250 g ai/ha)?
**A.** 75

**Q.** What about the “Plant response rating: Goosegrass” value ([9]; 31 g ai/ha) of the same molecule?
**A.** 50

**Q.** And the “Plant response rating: Goosegrass” value ([9]; 62 g ai/ha)?
**A.** 75

**Q.** And the “Plant response rating: Goosegrass” value ([9]; 125 g ai/ha)?
**A.** 80

**Q.** And the “Plant response rating: Goosegrass” value ([9]; 250 g ai/ha)?
**A.** 100

**Q.** What about the “Plant response rating: Horseweed” value ([10]; 31 g ai/ha) of the same molecule?
**A.** 30

**Q.** What about the “Plant response rating: Horseweed” value ([10]; 62 g ai/ha) of the same molecule?
**A.** 90

**Q.** And the “Plant response rating: Horseweed” value ([10]; 250 g ai/ha)?
**A.** 85

**Q.** And the “Plant response rating: Lambsquarters” value ([11]; 31 g ai/ha)?
**A.** 0

**Q.** What about the “Plant response rating: Lambsquarters” value ([11]; 62 g ai/ha) of the same molecule?
**A.** 0

**Q.** What about the “Plant response rating: Lambsquarters” value ([11]; 125 g ai/ha) of the same molecule?
**A.** 50

**Q.** And the “Plant response rating: Lambsquarters” value ([11]; 250 g ai/ha)?
**A.** 85

**Q.** And the “Plant response rating: Pigweed, Palmer” value ([12]; 31 g ai/ha)?
**A.** 0

**Q.** And the “Plant response rating: Pigweed, Palmer” value ([12]; 62 g ai/ha)?
**A.** 25

**Q.** What about the “Plant response rating: Pigweed, Palmer” value ([12]; 125 g ai/ha) of the same molecule?
**A.** 20

**Q.** What about the “Plant response rating: Pigweed, Palmer” value ([12]; 250 g ai/ha) of the same molecule?
**A.** 30

**Q.** What about the “Plant response rating: Ragweed” value ([13]; 31 g ai/ha) of the same molecule?
**A.** 20

**Q.** And the “Plant response rating: Ragweed” value ([13]; 62 g ai/ha)?
**A.** 20

**Q.** What about the “Plant response rating: Ragweed” value ([13]; 125 g ai/ha) of the same molecule?
**A.** 30

**Q.** And the “Plant response rating: Ragweed” value ([13]; 250 g ai/ha)?
**A.** 30

**Q.** What about the “Plant response rating: Ryegrass, Italian” value ([14]; 31 g ai/ha) of the same molecule?
**A.** 0

**Q.** And the “Plant response rating: Ryegrass, Italian” value ([14]; 62 g ai/ha)?
**A.** 0

**Q.** What about the “Plant response rating: Ryegrass, Italian” value ([14]; 125 g ai/ha) of the same molecule?
**A.** 10

**Q.** And the “Plant response rating: Ryegrass, Italian” value ([14]; 250 g ai/ha)?
**A.** 15

**Q.** What about the “Plant response rating: Sandbur” value ([15]; 31 g ai/ha) of the same molecule?
**A.** 10

**Q.** What about the “Plant response rating: Sandbur” value ([15]; 62 g ai/ha) of the same molecule?
**A.** 30

**Q.** And the “Plant response rating: Sandbur” value ([15]; 125 g ai/ha)?
**A.** 50

**Q.** What about the “Plant response rating: Sandbur” value ([15]; 250 g ai/ha) of the same molecule?
**A.** 50

**Q.** And the “Plant response rating: Soybean” value (soybean (Glycine max); 31 g ai/ha)?
**A.** 0

**Q.** And the “Plant response rating: Soybean” value (soybean (Glycine max); 62 g ai/ha)?
**A.** 10

**Q.** What about the “Plant response rating: Soybean” value (soybean (Glycine max); 125 g ai/ha) of the same molecule?
**A.** 20

**Q.** And the “Plant response rating: Soybean” value (soybean (Glycine max); 250 g ai/ha)?
**A.** 10

**Q.** And the “Plant response rating: Surinam Grass” value ([16]; 31 g ai/ha)?
**A.** 20

**Q.** And the “Plant response rating: Surinam Grass” value ([16]; 62 g ai/ha)?
**A.** 30

**Q.** What about the “Plant response rating: Surinam Grass” value ([16]; 125 g ai/ha) of the same molecule?
**A.** 40

**Q.** What about the “Plant response rating: Surinam Grass” value ([16]; 250 g ai/ha) of the same molecule?
**A.** 70

**Q.** And the “Plant response rating: Velvetleaf” value ([17]; 31 g ai/ha)?
**A.** 0

**Q.** And the “Plant response rating: Velvetleaf” value ([17]; 62 g ai/ha)?
**A.** 0

**Q.** And the “Plant response rating: Velvetleaf” value ([17]; 125 g ai/ha)?
**A.** 10

**Q.** And the “Plant response rating: Velvetleaf” value ([17]; 250 g ai/ha)?
**A.** 20

**Q.** What about the “Plant response rating: Waterhemp” value ([18]; 31 g ai/ha) of the same molecule?
**A.** 50

**Q.** What about the “Plant response rating: Waterhemp” value ([18]; 62 g ai/ha) of the same molecule?
**A.** 60

**Q.** What about the “Plant response rating: Waterhemp” value ([18]; 125 g ai/ha) of the same molecule?
**A.** 75

**Q.** And the “Plant response rating: Waterhemp” value ([18]; 250 g ai/ha)?
**A.** 70
